Values joined by “and” are separate entries in the source; they are usually repeats but may differ in a detail not shown here. Identical values can stand only once. Marks after values point to notes of the source that are not given here.
How the values were obtained:
[1] = Drug release studies of PLGA 85:15 rods (Example 2); assay type: physicochemical
rats [2] = assay: Tail flick test after intrathecal implantation of PLGA rods; assay type: in vivo; conditions: for % MPE, tail flick test, Average: average of 6 rats
rats [3] = assay: Anesthesia after intrathecal polymeric implants, all sites tested (Example 2); assay type: in vivo; conditions: intrathecal rods
rats [4] = assay: Paw withdrawal test after intrathecal implantation of PLGA rods; assay type: in vivo; conditions: for % MPE, paw withdrawal test, Average: average of 6 rats
[5] = In vitro release of BP or HM from PLGA 50:50 rods; assay type: physicochemical; conditions: BP rods of first batch
[6] = rat
[7] = test system: rats with sciatic nerve ligation; assay: Paw withdrawal threshold after sciatic nerve ligation, rods placed parallel to the nerve; assay type: in vivo, Sprague-Dawley rats
[8] = trapezoidal method, individual rats, listed as BP
[9] = trapezoidal method, mean of 6 rats

CCCCN1CCCCC1C(=O)Nc1c(C)cccc1C (stereo not shown) [Bupivacaine, bupivacaine]
relative rate of drug release [1]: released faster than the other two drugs
release order [1]: almost zero order
% MPE, tail flick test, Average (rats [2]; 2h): 40.52 % MPE
% MPE, tail flick test (rats [2]; 2h after intrathecal implantation of PLGA rod, individual rats): 31.19 % MPE and 41.43 % MPE and 63.08 % MPE and 30.89 % MPE and 23.85 % MPE and 52.69 % MPE
% MPE, tail flick test, Average (rats [2]; 4h): 39.06 % MPE
% MPE, tail flick test (rats [2]; 4h, individual rats): 24.2268 % MPE and 38.87 % MPE and 40.26 % MPE and 44.7644 % MPE and 11.79 % MPE and 74.46 % MPE
Area under the curve (AUC), tail flick test (rats [2]; % MPE versus time in days, trapezoidal method, individual rats, listed as BP): 130.77 and 82.59 and 112.23 and 137.33 and 90.32 and 72.88
Area under the curve (AUC), tail flick test, Mean (rats [2]; % MPE versus time in days, trapezoidal method, mean of 6 rats): 104.35 * #
% MPE, tail flick test, Average (rats [2]; D1): 23.1672 % MPE
% MPE, tail flick test (rats [2]; D1, individual rats): 14.95 % MPE and 27.11 % MPE and 31.79 % MPE and 25.65 % MPE and 11.54 % MPE and 27.96 % MPE
% MPE, tail flick test, Average (rats [2]; D2): 22.55 % MPE
% MPE, tail flick test (rats [2]; D2, individual rats): 13.4 % MPE and 32.23 % MPE and 40.51 % MPE and 16.49 % MPE and 13.33 % MPE and 19.35 % MPE
% MPE, tail flick test, Average (rats [2]; D3): 19.97 % MPE
% MPE, tail flick test (rats [2]; D3, individual rats): 14.95 % MPE and 22.51 % MPE and 26.92 % MPE and 13.87 % MPE and 18.46 % MPE and 23.12 % MPE
% MPE, tail flick test, Average (rats [2]; D4): 10.7 % MPE
% MPE, tail flick test (rats [2]; D4, individual rats): 14.43 % MPE and 14.0665 % MPE and 7.949 % MPE and 5.236 % MPE and 12.5641 % MPE and 9.946 % MPE
% MPE, tail flick test, Average (rats [2]; D5): 8.394 % MPE
% MPE, tail flick test (rats [2]; D5, individual rats): 9.536 % MPE and 4.092 % MPE and 7.692 % MPE and 5.236 % MPE and 7.949 % MPE and 15.86 % MPE
% MPE, tail flick test, Average (rats [2]; D6): 5.511 % MPE
% MPE, tail flick test (rats [2]; D6, individual rats): 8.247 % MPE and 0.7673 % MPE and 7.949 % MPE and 8.115 % MPE and 7.179 % MPE and 0.8065 % MPE
duration of anesthesia/analgesia (rats [3]): at least 4 days
% MPE, paw withdrawal test, Average (rats [4]; 2h, L): 26.10 % MPE
% MPE, paw withdrawal test, Average (rats [4]; 2h, R): 27.87 % MPE
% MPE, paw withdrawal test (rats [4]; 2h, left (L) hind paw, individual rats): 24.92 % MPE and 36.09 % MPE and 19.26 % MPE and 23.67 % MPE and 15.95 % MPE and 36.73 % MPE
% MPE, paw withdrawal test (rats [4]; 2h, right (R) hind paw, individual rats): 19.06 % MPE and 39.35 % MPE and 20.77 % MPE and 27 % MPE and 22.43 % MPE and 38.63 % MPE
% MPE, paw withdrawal test, Average (rats [4]; 4h, L): 26.48 % MPE
% MPE, paw withdrawal test (rats [4]; 4h, L, individual rats): 27.69 % MPE and 55.64 % MPE and 11.48 % MPE and 14.67 % MPE and 37.74 % MPE and 11.64 % MPE
% MPE, paw withdrawal test, Average (rats [4]; 4h, R): 29.68 % MPE
% MPE, paw withdrawal test (rats [4]; 4h, R, individual rats): 38.12 % MPE and 58.84 % MPE and 13.08 % MPE and 12 % MPE and 44.11 % MPE and 11.91 % MPE
% MPE, paw withdrawal test, Average (rats [4]; D1, L): 23.61 % MPE
% MPE, paw withdrawal test (rats [4]; D1, L, individual rats): 33.85 % MPE and 35.71 % MPE and 11.11 % MPE and 39 % MPE and 13.62 % MPE and 8.36 % MPE
% MPE, paw withdrawal test, Average (rats [4]; D1, R): 22.68 % MPE
% MPE, paw withdrawal test (rats [4]; D1, R, individual rats): 30.62 % MPE and 43.32 % MPE and 11.54 % MPE and 32 % MPE and 11.03 % MPE and 7.58 % MPE
% MPE, paw withdrawal test, Average (rats [4]; D2, L): 26.91 % MPE
% MPE, paw withdrawal test (rats [4]; D2, L, individual rats): 28.92 % MPE and 42.86 % MPE and 18.15 % MPE and 29 % MPE and 33.07 % MPE and 9.45 % MPE
% MPE, paw withdrawal test, Average (rats [4]; D2, R): 27.13 % MPE
% MPE, paw withdrawal test (rats [4]; D2, R, individual rats): 28.12 % MPE and 44.76 % MPE and 15.77 % MPE and 28.33 % MPE and 34.60 % MPE and 11.19 % MPE
% MPE, paw withdrawal test, Average (rats [4]; D3, L): 15.06 % MPE
% MPE, paw withdrawal test (rats [4]; D3, L, individual rats): 20.37 % MPE and 7.33 % MPE and 9.73 % MPE and 5.09 % MPE and 16.62 % MPE and 31.20 % MPE
% MPE, paw withdrawal test, Average (rats [4]; D3, R): 15.70 % MPE
% MPE, paw withdrawal test (rats [4]; D3, R, individual rats): 17.31 % MPE and 4.67 % MPE and 12.55 % MPE and 0.36 % MPE and 24.69 % MPE and 34.66 % MPE
% MPE, paw withdrawal test, Average (rats [4]; D4, L): 9.72 % MPE
% MPE, paw withdrawal test (rats [4]; D4, L, individual rats): 7.78 % MPE and 13.67 % MPE and 1.55 % MPE and 0 % MPE and 25.54 % MPE and 9.77 % MPE
% MPE, paw withdrawal test, Average (rats [4]; D4, R): 9.56 % MPE
% MPE, paw withdrawal test (rats [4]; D4, R, individual rats): 8.46 % MPE and 15.67 % MPE and 0.76 % MPE and 1.08 % MPE and 20.94 % MPE and 10.47 % MPE
% MPE, paw withdrawal test, Average (rats [4]; D5, L): 6.49 % MPE
% MPE, paw withdrawal test (rats [4]; D5, L, individual rats): 0.74 % MPE and 1 % MPE and 1.94 % MPE and 1.45 % MPE and 18.77 % MPE and 15.04 % MPE
% MPE, paw withdrawal test, Average (rats [4]; D5, R): 6.55 % MPE
% MPE, paw withdrawal test (rats [4]; D5, R, individual rats): 0.38 % MPE and 3 % MPE and 2.66 % MPE and 1.44 % MPE and 18.44 % MPE and 13.36 % MPE
% MPE, paw withdrawal test, Average (rats [4]; D6, L): 4.88 % MPE
% MPE, paw withdrawal test (rats [4]; D6, L, individual rats): 0.37 % MPE and 7 % MPE and 0.39 % MPE and −1.82 % MPE and 10.15 % MPE and 13.16 % MPE
% MPE, paw withdrawal test, Average (rats [4]; D6, R): 7.35 % MPE
% MPE, paw withdrawal test (rats [4]; D6, R, individual rats): 0.77 % MPE and 11 % MPE and 4.94 % MPE and 2.89 % MPE and 9.69 % MPE and 14.80 % MPE
Area under the curve (AUC), paw withdrawal test (left side) (rats [4]; [8]): 165.34 and 63.50 and 98.08 and 77.02 and 29.59 and 139.80
Area under the curve (AUC), paw withdrawal test (right side) (rats [4]; [8]): 179.14 and 59.77 and 93.21 and 84.38 and 29.51 and 143.50
Area under the curve (AUC), paw withdrawal test (left side), Mean (rats [4]; [9]): 95.55 * #
Area under the curve (AUC), paw withdrawal test (right side), Mean (rats [4]; [9]): 98.25 * #
in vitro release behavior [5]: zero order release pattern with two different rates
release from rods retrieved after termination of in vivo test [6]: suppressed release
analgesia, paw withdrawal threshold (difference score) ([7]; dose doubled (4 rods/rat)): possible to achieve the analgesic effect
analgesia, paw withdrawal threshold (difference score) ([7]; first part, single dose (2 rods/rat)): insufficient to provide analgesia

Reference: patent publication US6913760B2, “Drug delivery composition” (New England Medical Hospitals, Inc., priority 2001, dated 2005)
